# Source: patent publication US10081634B2, “Heterocyclic compound” (Daewoong Pharmaceutical Co., Ltd., priority 2014, dated 2018)
# Where two headings read alike, the source gives them in different places.
# Columns and labels:
# [1] = target: T1, PRS (prolyl-tRNA synthetase) (Homo sapiens, UniProt P07814); assay: In vitro PRS enzyme activity inhibition experiment ([3H]proline, liquid scintillation); assay type: biochemical
# T1 construct: the portion corresponding to PRS in cDNA of EPRS was subcloned; made in house
# T1 sequence (P07814 1007-1512 limits assumed): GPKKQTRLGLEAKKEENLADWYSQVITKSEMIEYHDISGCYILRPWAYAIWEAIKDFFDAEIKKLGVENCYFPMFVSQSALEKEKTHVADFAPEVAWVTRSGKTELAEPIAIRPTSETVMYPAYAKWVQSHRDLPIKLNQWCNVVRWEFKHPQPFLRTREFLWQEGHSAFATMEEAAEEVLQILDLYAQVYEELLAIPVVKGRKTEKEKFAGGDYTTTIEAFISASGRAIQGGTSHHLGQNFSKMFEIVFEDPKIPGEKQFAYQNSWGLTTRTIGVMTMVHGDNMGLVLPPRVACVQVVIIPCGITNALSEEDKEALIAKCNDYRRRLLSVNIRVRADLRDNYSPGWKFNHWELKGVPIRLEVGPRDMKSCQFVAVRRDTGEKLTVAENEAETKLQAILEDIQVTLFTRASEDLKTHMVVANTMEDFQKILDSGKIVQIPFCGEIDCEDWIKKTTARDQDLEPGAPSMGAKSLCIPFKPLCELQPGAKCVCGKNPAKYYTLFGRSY
# Procedure: In order to confirm the biological activities of the compounds prepared in Examples, % inhibition or IC50 values of PRS enzyme ([…]) activities were calculated.
# Specifically, the portion corresponding to PRS in cDNA of EPRS was subcloned, and the obtained high-purity PRS protein was purified and used in the experiment. The compounds (1 μM) prepared in Examples were added into the reaction buffer (20 mM KPO4 (pH 7.4), 6 mM MgAc, 5 mM ATP, […] tRNA, 0.5 mM DTT, 20 mCi[^3H]proline (1 mCi/mL)) and allowed to react at 37° C. for 5 to 10 minutes. The reaction was terminated with 3M paper that was previously dried by addition of 5% TCA. The radioactivity was measured using a liquid scintillation counter.
# IC50 values of the respective compounds were calculated and analyzed using Microsoft Excel or Sigma Plot 8.0. In Table 1, the results are divided into A, B and C according to the range of IC50. The case where the derived IC50 is 100 nM or less is represented by “A”, the case where the IC50 is 100 to 500 nM is represented by “B”, and the case where the IC50 is 500 nM or higher is represented by “C”.
# NCI-H460 cells = assay: Cancer cell growth inhibition experiment (MTT assay); assay type: cell-based; conditions: Homo sapiens; NCI-H460 lung cancer cell line; 48 hours treatment; MTT cell viability
# Procedure: NCI-H460 cells, lung cancer cell lines, were cultured in 5% CO2, 37° C. incubator using a flask for 75 cm^2 tissue culture. 96-well plates were used for the evaluation. These were prepared by differently applying at concentrations in the range of 6,000 to 12,000 cells/well according to the growth rate of the cell lines. The medium containing 5% FBS were dispensed in 200 μL/well and used. The medium were cultured for 24 hours. After confirming the cell status and dispensing form of a 96-well plate under a microscope, they were used for subsequent experiments. The compounds were evaluated at concentrations of 100, 30, 10, 3, 1, 0.3, 0.03, 0.01 μM. After removing the existing medium, the compounds with various concentrations were treated in an amount of 200 μL/well. The compounds-treated plates were further cultured for 48 hours, and the cell viabilities were measured by MTT assay to calculate IC50 values.
# % Inhibition and IC50 values of the respective compounds were calculated and analyzed using Sigma Plot 8.0. The case where the derived IC50 is 5 μM or less is represented by “A”, the case where the IC50 is 5 to 30 μM is represented by “B”, and the case where the IC50 is 30 μM or higher is represented by “C”.
# [2] = purified PRS protein subcloned from EPRS cDNA, 37° C., 5 to 10 minutes, read-out: PRS IC50
Compound,"IC50 [1, 2] [µM]",IC50 (NCI-H460 cells) [µM],IC50 [1] [µM]
"O=C(C[C@H]1NCCC[C@@H]1O)Cn1cnc2cc(Br)c(Br)cc21 [Example 27, 1-(5,6-dibromo-1H-benzo[d]imidazol-1-yl)-3-((2R,3S)-3-hydroxypiperidin-2-yl)propan-2-one]",< 0.1,5 to 30,–
"Cc1c(Cl)ccc2ncn(CC(=O)C[C@H]3NCCC[C@@H]3O)c12 [Example 28, 1-(6-chloro-7-methyl-1H-benzo[d]imidazol-1-yl)-3-((2R,3S)-3-hydroxypiperidin-2-yl)propan-2-one]",< 0.1,≥ 30,–
"O=C(C[C@H]1NCCC[C@@H]1O)Cn1cnc2nc(C(F)(F)F)ccc21 [Example 30, 1-((2R,3S)-3-hydroxypiperidin-2-yl)-3-(5-(trifluoromethyl)-1H-imidazo[4,5-b]pyridin-1-yl)propan-2-one]",> 0.5,≥ 30,–
"O=C(C[C@H]1NCCC[C@@H]1O)Cn1cnc2cnc(Cl)cc21 [Example 32, 1-(6-chloro-1H-imidazo[4,5-c]pyridin-1-yl)-3-((2R,3S)-3-hydroxypiperidin-2-yl)propan-2-one]",0.1 to 0.5,≥ 30,–
"O=C(C[C@H]1NCCC[C@@H]1O)Cn1cnc2cncc(Br)c21 [Example 33, 1-(7-bromo-1H-imidazo[4,5-c]pyridin-1-yl)-3-((2R,3S)-3-hydroxypiperidin-2-yl)propan-2-one]",< 0.1,5 to 30,–
"O=C(C[C@H]1NCCC[C@@H]1O)Cn1cnc2ccc(Br)nc21 [Example 35, 1-(5-bromo-3H-imidazo[4,5-b]pyridin-3-yl)-3-((2R,3S)-3-hydroxypiperidin-2-yl)propan-2-one]",< 0.1,5 to 30,–
"O=C(C[C@H]1NCCC[C@@H]1O)Cn1cnc2ccc(C(F)(F)F)nc21 [Example 36, 1-((2R,3S)-3-hydroxypiperidin-2-yl)-3-(5-(trifluoromethyl)-3H-imidazo[4,5-b]pyridin-3-yl)propan-2-one]",< 0.1,5 to 30,–
"O=C(C[C@H]1NCCC[C@@H]1O)Cn1cnc2cc(Br)cnc21 [Example 37, 1-(6-bromo-3H-imidazo[4,5-b]pyridin-3-yl)-3-((2R,3S)-3-hydroxypiperidin-2-yl)propan-2-one]",< 0.1,≤ 5,–
"N#Cc1cnc2c(c1)ncn2CC(=O)C[C@H]1NCCC[C@@H]1O [Example 38, 3-(3-((2R,3S)-3-hydroxypiperidin-2-yl)-2-oxopropyl)-3H-imidazo[4,5-b]pyridine-6-carbonitrile]",0.1 to 0.5,≥ 30,–
"Cc1c(Cl)cnc2c1ncn2CC(=O)C[C@H]1NCCC[C@@H]1O [Example 39, 1-(6-chloro-7-methyl-3H-imidazo[4,5-b]pyridin-3-yl)-3-((2R,3S)-3-hydroxypiperidin-2-yl)propan-2-one]",< 0.1,≤ 5,–
"Cc1c(Br)cnc2c1ncn2CC(=O)C[C@H]1NCCC[C@@H]1O [Example 40, 1-(6-bromo-7-methyl-3H-imidazo[4,5-b]pyridin-3-yl)-3-((2R,3S)-3-hydroxypiperidin-2-yl)propan-2-one]",< 0.1,≤ 5,–
"O=C(C[C@H]1NCCC[C@@H]1O)Cn1cnc2c(Cl)c(Br)cnc21 [Example 42, 1-(6-bromo-7-chloro-3H-imidazo[4,5-b]pyridin-3-yl)-3-((2R,3S)-3-hydroxypiperidin-2-yl)propan-2-one]",–,≤ 5,< 0.1
"Cc1nc2cc(Cl)c(Cl)cc2n1CC(=O)C[C@H]1NCCC[C@@H]1O [Example 46, 1-(5,6-dichloro-2-methyl-1H-benzo[d]imidazol-1-yl)-3-((2R,3S)-3-hydroxypiperidin-2-yl)propan-2-one]",< 0.1,≥ 30,–
"CCc1nc2cc(Cl)c(Cl)cc2n1CC(=O)C[C@H]1NCCC[C@@H]1O [Example 48, 1-(5,6-dichloro-2-ethyl-1H-benzo[d]imidazol-1-yl)-3-((2R,3S)-3-hydroxypiperidin-2-yl)propan-2-one]",> 0.5,≥ 30,–
"O=C(C[C@H]1NCCC[C@@H]1O)Cn1c(C(F)(F)F)nc2cc(Cl)c(Cl)cc21 [Example 50, 1-(5,6-dichloro-2-(trifluoromethyl)-1H-benzo[d]imidazol-1-yl)-3-((2R,3S)-3-hydroxypiperidin-2-yl)propan-2-one]",> 0.5,≥ 30,–
"CN(C)Cc1nc2cc(Cl)c(Cl)cc2n1CC(=O)C[C@H]1NCCC[C@@H]1O [Example 51, 1-(5,6-dichloro-2-((dimethylamino)methyl)-1H-benzo[d]imidazol-1-yl)-3-((2R,3S)-3-hydroxypiperidin-2-yl)propan-2-one]",> 0.5,≥ 30,–
"NCc1nc2cc(Cl)c(Cl)cc2n1CC(=O)C[C@H]1NCCC[C@@H]1O [Example 52, 1-(2-(aminomethyl)-5,6-dichloro-1H-benzo[d]imidazol-1-yl)-3-((2R,3S)-3-hydroxypiperidin-2-yl)propan-2-one]",> 0.5,≥ 30,–
"O=C(C[C@H]1NCCC[C@@H]1O)Cn1c(CO)nc2ccccc21 [Example 56, 1-(2-(hydroxymethyl)-1H-benzo[d]imidazol-1-yl)-3-((2R,3S)-3-hydroxypiperidin-2-yl)propan-2-one]",< 0.1,≥ 30,–
"O=C(C[C@H]1NCCC[C@@H]1O)Cn1c(CO)nc2cc(Br)ccc21 [Example 57, 1-(5-bromo-2-(hydroxymethyl)-1H-benzo[d]imidazol-1-yl)-3-((2R,3S)-3-hydroxypiperidin-2-yl)propan-2-one]",0.1 to 0.5,5 to 30,–
"O=C(C[C@H]1NCCC[C@@H]1O)Cn1c(CO)nc2ccc(Br)cc21 [Example 58, 1-(6-bromo-2-(hydroxymethyl)-1H-benzo[d]imidazol-1-yl)-3-((2R,3S)-3-hydroxypiperidin-2-yl)propan-2-one]",< 0.1,5 to 30,–
"O=C(C[C@H]1NCCC[C@@H]1O)Cn1c(CO)nc2ccc(C(F)(F)F)cc21 [Example 59, 1-(2-(hydroxymethyl)-6-(trifluoromethyl)-1H-benzo[d]imidazol-1-yl)-3-((2R,3S)-3-hydroxypiperidin-2-yl)propan-2-one]",< 0.1,5 to 30,–
"O=C(C[C@H]1NCCC[C@@H]1O)Cn1c(CO)nc2cc(OC(F)(F)F)ccc21 [Example 60, 1-(2-(hydroxymethyl)-5-(trifluoromethoxy)-1H-benzo[d]imidazol-1-yl)-3-((2R,3S)-3-hydroxypiperidin-2-yl)propan-2-one]",> 0.5,≥ 30,–
"O=C(C[C@H]1NCCC[C@@H]1O)Cn1c(CO)nc2cccc(OC(F)(F)F)c21 [Example 61, 1-(2-(hydroxymethyl)-7-(trifluoromethoxy)-1H-benzo[d]imidazol-1-yl)-3-((2R,3S)-3-hydroxypiperidin-2-yl)propan-2-one]",> 0.5,≥ 30,–
"Cc1ccc2c(nc(CO)n2CC(=O)C[C@H]2NCCC[C@@H]2O)c1C [Example 62, 1-(2-(hydroxymethyl)-4,5-dimethyl-1H-benzo[d]imidazol-1-yl)-3-((2R,3S)-3-hydroxypiperidin-2-yl)propan-2-one]",> 0.5,≥ 30,–
"OC(C[C@H]1NCCC[C@@H]1O)Cn1cnc2ccccc21 (stereo partly drawn) [Example 69, (2R,3S)-2-(3-(1H-benzo[d]imidazol-1-yl)-2-hydroxypropyl)piperidin-3-ol]",> 0.5,≥ 30,–
"OC(C[C@H]1NCCC[C@@H]1O)Cn1cnc2cc(Cl)c(Cl)cc21 (stereo partly drawn) [Example 70, (2R,3S)-2-(3-(5,6-dichloro-1H-benzo[d]imidazol-1-yl)-2-hydroxypropyl)piperidin-3-ol]",0.1 to 0.5,5 to 30,–
